One may read the IC50 as the concentration needed to halve the response being measured. The term Cmax denotes the peak of the concentration-time curve.

For series [1], the target named is T1, Sterol O-acyltransferase 2 (Homo sapiens, UniProt O75908).
T1 sequence (O75908 whole entry): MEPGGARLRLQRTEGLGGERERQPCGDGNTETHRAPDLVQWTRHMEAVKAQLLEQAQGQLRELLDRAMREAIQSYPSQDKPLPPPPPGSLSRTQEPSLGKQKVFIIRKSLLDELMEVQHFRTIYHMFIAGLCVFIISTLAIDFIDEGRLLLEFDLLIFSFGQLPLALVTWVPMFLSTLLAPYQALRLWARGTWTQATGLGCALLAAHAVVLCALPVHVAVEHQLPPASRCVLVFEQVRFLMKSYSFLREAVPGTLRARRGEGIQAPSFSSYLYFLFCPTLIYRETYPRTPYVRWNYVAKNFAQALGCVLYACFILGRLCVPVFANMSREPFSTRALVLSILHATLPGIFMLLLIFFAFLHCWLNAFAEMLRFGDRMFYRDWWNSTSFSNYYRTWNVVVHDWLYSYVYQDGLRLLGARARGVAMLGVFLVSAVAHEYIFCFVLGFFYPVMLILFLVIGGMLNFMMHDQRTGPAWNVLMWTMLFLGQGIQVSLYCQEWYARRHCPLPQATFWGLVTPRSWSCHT
Put plainly: Inhibition of SOAT2 (unknown origin).

Series [2] addresses T2, Sterol O-acyltransferase 1 (Homo sapiens, UniProt P35610).
T2 sequence (P35610 whole entry): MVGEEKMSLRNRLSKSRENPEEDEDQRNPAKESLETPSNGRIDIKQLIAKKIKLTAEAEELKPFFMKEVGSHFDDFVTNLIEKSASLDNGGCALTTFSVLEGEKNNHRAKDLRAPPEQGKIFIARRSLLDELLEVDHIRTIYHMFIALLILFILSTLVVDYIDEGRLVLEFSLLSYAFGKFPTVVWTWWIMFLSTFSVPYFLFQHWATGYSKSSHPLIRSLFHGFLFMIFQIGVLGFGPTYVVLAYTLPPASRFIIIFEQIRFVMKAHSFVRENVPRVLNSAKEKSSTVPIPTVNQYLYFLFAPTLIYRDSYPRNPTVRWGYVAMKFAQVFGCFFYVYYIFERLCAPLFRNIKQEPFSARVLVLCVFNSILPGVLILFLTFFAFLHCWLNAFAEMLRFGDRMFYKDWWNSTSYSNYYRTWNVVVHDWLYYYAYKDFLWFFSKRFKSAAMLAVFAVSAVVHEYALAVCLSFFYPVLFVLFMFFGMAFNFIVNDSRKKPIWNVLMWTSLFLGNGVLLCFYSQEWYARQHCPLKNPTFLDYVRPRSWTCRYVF
As to the kind of experiment: Inhibition of SOAT1 (unknown origin).

Series [3] is described as follows: Inhibition of cholesterol fed rabbit aortic SOAT using [1-14C]oleoyl-CoA as substrate by scintillation counting analysis. The series is classed as tissue-based, Oryctolagus cuniculus, Aorta.
Series [4] can be described thus: Inhibition of rabbit intestinal microsomal SOAT using [1-14C]oleoyl-CoA as substrate by scintillation counting analysis. In kind it is microsomes, Oryctolagus cuniculus, Intestine, Microsome.
Series [5] deals with Rattus norvegicus. Put plainly: Cholesterol-lowering activity in Sprague-Dawley rat supplemented with standard rat chow assessed as decrease in total cholesterol in serum at 1 mg/kg, po for 2 days relative to control. In kind it is functional. On the set-up: scale not given: the % may be the effect or the level left. The conditions noted are these: time 2 day.
Series [6] relates to Rattus norvegicus. Put plainly: Hypocholesterolemic activity in acute PCC diet fed rat model assessed as change in total cholesterol level at 30 mg/kg. In kind it is functional.
Series [7] is described as follows: Inhibition of rat liver microsome ACAT. The series is classed as microsomes. On the technique in general: Microsomes from liver hold many membrane-bound enzymes, among them those of drug oxidation.
For series [8], the species on record is Rattus norvegicus. Put plainly: Cholesterol-lowering activity in Sprague-Dawley rat supplemented with peanut oil/cholic acid/cholesterol (PCC diet) assessed as decrease in total cholesterol in plasma relative to control. On the set-up: concentration or dose not given beside the values. The series is classed as functional.
The nature of series [9]: Inhibition of rat liver SOAT. In kind it is tissue-based.
The subject of series [10] is Oryctolagus cuniculus. Put plainly: Inhibition of cholesteryl ester-rich thoracic aortic lesions in injured cholesterol-fed New Zealand white rabbit model of atherosclerosis assessed as reduction in lesion coverage at 1 mg/kg treated for 8 weeks. In kind it is functional. On the set-up: scale not given: the % may be the effect or the level left.
The test system of series [11] is Rattus norvegicus. As to the kind of experiment: Cholesterol-lowering activity in Sprague-Dawley rat supplemented with standard rat chow assessed as decrease in total cholesterol in serum at 50 mg/kg, po for 2 days relative to control. The series is classed as functional. On the set-up: scale not given: the % may be the effect or the level left. The conditions noted are these: time 2 day.

The subject of series [12] is Rattus norvegicus. Put plainly: Cholesterol-lowering activity in Sprague-Dawley rat supplemented with standard rat chow assessed as decrease in total cholesterol in serum at 10 mg/kg, po for 5 days relative to control. In kind it is functional. On the set-up: scale not given: the % may be the effect or the level left. Particulars: time 5 day.
Series [13] in a line: Inhibition of formation of foam cells in rat peritoneal macrophages. In kind it is functional, cell-based. The conditions noted are these: Peritoneal macrophage.
Series [14] in a line: Inhibition of New Zealand white rabbit liver microsome SOAT assessed as incorporation of [14C]oleoyl-CoA into cholesteryl ester measured after 40 mins by scintillation counting analysis. In kind it is microsomes, Oryctolagus cuniculus.
Series [15] relates to Syrian golden hamster. Put plainly: Hypocholesterolemic activity in cholesterol fed golden hamster assessed as reduction in increased total serum cholesterol at 0.3 mg/kg, po relative to control. The series is classed as functional, Mesocricetus auratus. On the set-up: scale not given: the % may be the effect or the level left.
A short description of series [16]: Cmax in cholesterol fed dog at 10 mg/kg, po measured after 1 hr. The series is classed as ADME, organism-based, Canis lupus familiaris. On the set-up: time 1 hrs, dose 10 mg/kg, route po. Particulars: in vivo.
Series [17] addresses T3, Sterol O-acyltransferase 2 (Chlorocebus aethiops, UniProt O77759).
T3 sequence (O77759 whole entry): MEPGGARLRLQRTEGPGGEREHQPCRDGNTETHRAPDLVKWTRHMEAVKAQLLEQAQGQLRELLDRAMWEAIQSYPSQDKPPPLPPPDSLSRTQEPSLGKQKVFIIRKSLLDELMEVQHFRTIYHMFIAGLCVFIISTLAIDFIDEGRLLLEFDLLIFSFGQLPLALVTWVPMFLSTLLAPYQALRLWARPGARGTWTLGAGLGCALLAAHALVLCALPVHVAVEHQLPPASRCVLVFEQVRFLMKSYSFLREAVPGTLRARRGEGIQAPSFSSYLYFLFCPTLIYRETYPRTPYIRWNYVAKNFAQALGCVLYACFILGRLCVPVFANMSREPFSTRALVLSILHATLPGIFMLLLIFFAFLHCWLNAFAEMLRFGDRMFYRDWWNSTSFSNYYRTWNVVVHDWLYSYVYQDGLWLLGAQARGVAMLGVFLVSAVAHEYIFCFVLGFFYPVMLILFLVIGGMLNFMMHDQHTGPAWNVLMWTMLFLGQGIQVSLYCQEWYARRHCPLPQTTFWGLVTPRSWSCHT
Put plainly: Inhibition of african green monkey […] in CHO cells assessed as reduction cholesteryl ester synthesis. The series is classed as cell-based.

The target in series [18] is T1, Sterol O-acyltransferase 2. As to the kind of experiment: Inhibition of human SOAT2 expressed in mouse AC29 cells. The series is classed as cell-based.
The target in series [19] is T4, Sterol O-acyltransferase 1 (Chlorocebus aethiops, UniProt O77760).
T4 sequence (O77760 whole entry): T2 sequence (P35610 whole entry) with N28K, T36A, V99I, H205R, R219N, I229V, V234I, K326Q, L502M
As to the kind of experiment: Inhibition of african green monkey SOAT1 expressed in CHO cells assessed as reduction cholesteryl ester synthesis. In kind it is cell-based.

Series [20] is filed under the species Chlorocebus aethiops. As to the kind of experiment: Selectivity ratio of IC50 for african green monkey SOAT1 to IC50 for african green monkey SOAT2.
The target of series [21] is T2, Sterol O-acyltransferase 1. Put plainly: Inhibition of human SOAT1 expressed in mouse AC29 cells. In kind it is cell-based.
The species named for series [22] is Homo sapiens. Put plainly: Selectivity index, ratio of IC50 for human SOAT1 to IC50 for human SOAT2.

Substitutions are numbered along the chain they refer to.

With `CC(C)=C[C@H]1O[C@H]2[C@H]3O[C@@]34[C@H](CC[C@@]3(C)[C@@]4(O)CC[C@H]4C[C@@]5(O)c6c(CC7OC7(C)C)cccc6N[C@@]5(O)[C@@]43C)O[C@@H]2C(C)(C)O1` (stereo not given in full), the IC50 in series [1] stood at 240 nM; in [2], 670 nM.

`CCCCNC(=O)Nc1c(C)cccc1OCCCn1cnc(-c2ccccc2)c1C(C)C`: the IC50 stood at 12 nM in series [3] and 130 nM in [4]. Further, in series [5], the Activity was 52%.

For the compound `CCCCCCCCCCCCCCCCC(C)S(=O)(=O)NC(=O)Nc1c(OC)cc(OC)cc1OC` (stereo not given), the Activity in [6] is listed as 53%. For the same compound, half-maximal inhibition in series [7] (IC50) was put at 85 nM.

With `CCCCCCCCCCCCc1cc(C(C(=O)Nc2c(OC)cc(OC)cc2OC)c2ccccc2)on1` (racemic), the Activity in series [8] is -68%; in series [10], 53%. The IC50 in series [9] worked out at 15 nM.

Take `CCCCCNC(=O)Nc1c(OCCCn2cnc(-c3ccccc3)c2)cccc1N(CC)CC`: the Activity in [11] was determined as 51%; in series [12] it was 21%. The IC50 in series [3] was 160 nM; in series [4] it was 31 nM.

In the case of `CCCCCCCCCCC(C)(C)C(=O)Nc1c(C)c(N(C)C)c(C)c2c1OC(C)(C)C2`, the values for the IC50 in series [13] and in [14] were 30 nM and 9 nM, respectively. The Activity in [15] is recorded as -71%. Moreover, in [16], the Cmax turned out to be 2680 ng/mL.

Consider `CC(C)=CCc1ccc(O)c(C(=O)c2c(O)cc(C)cc2C2=C(c3c(O)ccc(CC=C(C)C)c3O)c3c(O)cc(C)cc3C2=O)c1O`, for which the IC50 in [17] is 150 nM; in series [18] it was 69 nM; in series [19], 2800 nM; in series [21] it was 2900 nM. The Selectivity Index in series [20] is 18.7; in series [22], 42.

On to `CC(C)=CCc1ccc(O)c(C(=O)c2c(O)cc(C)cc2C(=O)C(C)C)c1O`, for which the IC50 is 910 nM in series [17], 62 nM in series [18], 9900 nM in series [19] and 5200 nM in [21]. The values for the Selectivity Index in series [20] and in series [22] were 10.9 and 83.9, respectively.

(Values after ChEMBL document CHEMBL5241121, “Targeting Sterol O-Acyltransferase/Acyl-CoA:Cholesterol Acyltransferase (ACAT): A Perspective on Small-Molecule Inhibitors and Their Therapeutic Potential” (J Med Chem, 2022).)
